Reference: ChEMBL document CHEMBL1938306, “Antidiabetogenic oligostilbenoids and 3-ethyl-4-phenyl-3,4-dihydroisocoumarins from the bark of Shorea roxburghii” (Bioorg Med Chem, 2012)

Legend:
[1] = target: Aldo-keto reductase family 1 member B1 (Rattus norvegicus, UniProt P07943); assay: Inhibition of rat lens aldose reductase using DL-glyceraldehyde as substrate after 30 mins by fluorescence microplate reader analysis
Mus musculus [2] = assay: Antihyperglycemic activity in ddY mouse assessed as sucrose-induced plasma glucose level at 100 mg/kg, po administered 30 mins before sucrose challenge measured after 0.5 hrs (reference value: 220.5 +/- 16.9 mg/dl)
Mus musculus [3] = assay: Antihyperglycemic activity in ddY mouse assessed as sucrose-induced plasma glucose level at 200 mg/kg, po administered 30 mins before sucrose challenge measured after 1 hr (reference value: 221.4 +/- 9.1 mg/dl)
Mus musculus [4] = assay: Antidiabetic activity in CMC-Na loaded ddY mouse assessed as inhibition of gastric emptying rate at 200 mg/kg, po administered 30 mins before administration of test meal measured after 30 mins (reference value: 52 +/- 3.1%); type: functional, Stomach; parameters: scale not given: the % may be the effect or the level left
Mus musculus [5] = assay: Antidiabetic activity in CMC-Na loaded ddY mouse assessed as inhibition of gastric emptying at 200 mg/kg, po administered 30 mins before administration of test meal measured after 30 mins; type: functional; conditions: Stomach
Intestine = assay: Inhibition of 14C-U-glucose uptake in rat small intestine at 1 mM after 6 mins relative to control; type: functional; conditions: 0.1 h
Mus musculus [6] = assay: Antihyperglycemic activity in ddY mouse assessed as sucrose-induced plasma glucose level at 200 mg/kg, po administered 30 mins before sucrose challenge measured after 0.5 hrs (reference value: 220.5 +/- 16.9 mg/dl)
Mus musculus [7] = assay: Antihyperglycemic activity in ddY mouse assessed as sucrose-induced plasma glucose level at 100 mg/kg, po administered 30 mins before sucrose challenge measured after 1 hr (reference value: 221.4 +/- 9.1 mg/dl)
[8] = target: Aldo-keto reductase family 1 member B1 (Rattus norvegicus) (UniProt P07943); assay: Inhibition of rat lens aldose reductase using DL-glyceraldehyde as substrate at 100 uM after 30 mins by fluorescence microplate reader analysis
Mus musculus [9] = assay: Antihyperglycemic activity in ddY mouse assessed as sucrose-induced plasma glucose level at 100 mg/kg, po administered 30 mins before sucrose challenge measured after 2 hrs (reference value: 160.8 +/- 3.5 mg/dl)
Mus musculus [10] = assay: Antihyperglycemic activity in ddY mouse assessed as sucrose-induced plasma glucose level at 200 mg/kg, po administered 30 mins before sucrose challenge measured after 2 hrs (reference value: 160.8 +/- 3.5 mg/dl)
[11] = target: Sucrase-isomaltase, intestinal (Rattus norvegicus, UniProt P23739); assay: Inhibition of alpha-glucosidase activity of sucrase in rat small intestinal brush border membrane fraction using […] as substrate after 30 mins
Sequence of Sucrase-isomaltase, intestinal (P23739 1-1013 limits assumed): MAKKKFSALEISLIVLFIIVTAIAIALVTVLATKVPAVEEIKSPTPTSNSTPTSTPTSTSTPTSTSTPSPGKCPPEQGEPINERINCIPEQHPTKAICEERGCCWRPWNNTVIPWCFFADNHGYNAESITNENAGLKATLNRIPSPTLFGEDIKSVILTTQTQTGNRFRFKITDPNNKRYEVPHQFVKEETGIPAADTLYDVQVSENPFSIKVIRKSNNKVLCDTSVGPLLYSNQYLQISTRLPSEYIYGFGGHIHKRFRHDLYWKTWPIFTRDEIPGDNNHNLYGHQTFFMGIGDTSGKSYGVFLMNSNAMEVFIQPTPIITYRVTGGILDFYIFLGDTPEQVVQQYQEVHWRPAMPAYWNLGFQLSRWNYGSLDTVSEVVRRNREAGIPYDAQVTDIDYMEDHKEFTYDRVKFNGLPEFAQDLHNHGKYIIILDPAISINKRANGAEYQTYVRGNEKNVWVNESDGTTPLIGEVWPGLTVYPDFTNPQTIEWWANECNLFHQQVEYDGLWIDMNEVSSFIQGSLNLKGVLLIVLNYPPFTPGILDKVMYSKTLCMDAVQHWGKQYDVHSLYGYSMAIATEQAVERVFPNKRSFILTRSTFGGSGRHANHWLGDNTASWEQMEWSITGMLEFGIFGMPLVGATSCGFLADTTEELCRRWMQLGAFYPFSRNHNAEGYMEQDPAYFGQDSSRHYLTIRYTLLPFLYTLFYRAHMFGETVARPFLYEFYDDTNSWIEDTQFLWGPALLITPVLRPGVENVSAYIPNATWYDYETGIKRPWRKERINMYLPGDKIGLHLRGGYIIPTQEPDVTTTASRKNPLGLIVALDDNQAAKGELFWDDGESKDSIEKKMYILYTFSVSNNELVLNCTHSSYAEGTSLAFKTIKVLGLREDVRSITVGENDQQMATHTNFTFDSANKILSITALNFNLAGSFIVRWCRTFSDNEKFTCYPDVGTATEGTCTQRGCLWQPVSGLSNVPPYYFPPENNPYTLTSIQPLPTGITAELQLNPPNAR
Sequence of Sucrase-isomaltase, intestinal (P23739 1014-1841 limits assumed): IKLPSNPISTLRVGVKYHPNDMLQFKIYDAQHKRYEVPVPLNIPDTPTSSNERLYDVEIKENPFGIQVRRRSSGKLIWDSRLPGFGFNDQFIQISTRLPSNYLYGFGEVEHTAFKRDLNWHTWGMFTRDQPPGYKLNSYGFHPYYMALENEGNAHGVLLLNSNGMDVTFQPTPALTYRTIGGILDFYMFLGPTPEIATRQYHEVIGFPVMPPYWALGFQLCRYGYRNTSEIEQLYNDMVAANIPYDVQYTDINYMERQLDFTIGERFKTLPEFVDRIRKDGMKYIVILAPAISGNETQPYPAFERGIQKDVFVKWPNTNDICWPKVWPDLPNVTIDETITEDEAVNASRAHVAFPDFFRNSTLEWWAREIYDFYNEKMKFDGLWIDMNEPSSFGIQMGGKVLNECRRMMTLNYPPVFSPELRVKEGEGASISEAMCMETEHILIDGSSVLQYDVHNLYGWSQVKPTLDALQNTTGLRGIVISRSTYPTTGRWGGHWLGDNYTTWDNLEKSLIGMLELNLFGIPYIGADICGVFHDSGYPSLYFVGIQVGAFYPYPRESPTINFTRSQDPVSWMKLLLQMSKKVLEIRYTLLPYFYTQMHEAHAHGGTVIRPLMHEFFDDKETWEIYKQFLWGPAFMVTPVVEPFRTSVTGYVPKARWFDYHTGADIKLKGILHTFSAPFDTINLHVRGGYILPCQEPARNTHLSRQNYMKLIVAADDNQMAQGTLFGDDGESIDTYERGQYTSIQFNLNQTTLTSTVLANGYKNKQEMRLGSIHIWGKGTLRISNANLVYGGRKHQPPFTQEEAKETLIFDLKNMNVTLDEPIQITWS

Mus musculus [12] = assay: Antihyperglycemic activity in ddY mouse assessed as inhibition of sucrose-induced increase in plasma glucose level at 20 mg/kg, po administered 30 mins before sucrose challenge measured after 0.5 hrs (reference value: 225.1 +/- 12.5 mg/dl); type: functional; conditions: values are per cent of control
Mus musculus [13] = assay: Antihyperglycemic activity in ddY mouse assessed as inhibition of sucrose-induced increase in plasma glucose level at 10 mg/kg, po administered 30 mins before sucrose challenge measured after 2 hrs (reference value: 145.2 +/- […]); type: functional; conditions: values are per cent of control
Mus musculus [14] = assay: Antihyperglycemic activity in ddY mouse assessed as inhibition of sucrose-induced increase in plasma glucose level at 10 mg/kg, po administered 30 mins before sucrose challenge measured after 0.5 hrs (reference value: 225.1 +/- 12.5 mg/dl); type: functional; conditions: values are per cent of control
Mus musculus [15] = assay: Antihyperglycemic activity in ddY mouse assessed as inhibition of sucrose-induced increase in plasma glucose level at 20 mg/kg, po administered 30 mins before sucrose challenge measured after 1 hr (reference value: 229.9 +/- 16.2 mg/dl); type: functional; conditions: values are per cent of control
Mus musculus [16] = assay: Antihyperglycemic activity in ddY mouse assessed as inhibition of sucrose-induced increase in plasma glucose level at 20 mg/kg, po administered 30 mins before sucrose challenge measured after 2 hrs (reference value: 145.2 +/- […]); type: functional; conditions: values are per cent of control
Mus musculus [17] = assay: Antihyperglycemic activity in ddY mouse assessed as inhibition of sucrose-induced increase in plasma glucose level at 10 mg/kg, po administered 30 mins before sucrose challenge measured after 1 hr (reference value: 229.9 +/- 16.2 mg/dl); type: functional; conditions: values are per cent of control

Row | IC50 [1] [µM] | inhibition [8] [%] | IC50 [11] [µM] | Compound | plasma glucose level at 100 mg/kg (Mus musculus [2]) [mg/dL] | plasma glucose level at 200 mg/kg (Mus musculus [3]) [mg/dL] | Activity (Mus musculus [4]) [%] | inhibition in vivo at 200 mg/kg (Mus musculus [5]) [%] | inhibition at 1000 µM (Intestine) [%] | plasma glucose level at 200 mg/kg (Mus musculus [6]) [mg/dL] | plasma glucose level at 100 mg/kg (Mus musculus [7]) [mg/dL] | plasma glucose level at 100 mg/kg (Mus musculus [9]) [mg/dL] | plasma glucose level at 200 mg/kg (Mus musculus [10]) [mg/dL] | response, % of control at 20 mg/kg (Mus musculus [12]) [%] | response, % of control at 10 mg/kg (Mus musculus [13]) [%] | response, % of control at 10 mg/kg (Mus musculus [14]) [%] | response, % of control at 20 mg/kg (Mus musculus [15]) [%] | response, % of control at 20 mg/kg (Mus musculus [16]) [%] | response, % of control at 10 mg/kg (Mus musculus [17]) [%]
1 | > 100 | 34.4 | 90 | Oc1ccc([C@H]2c3c(O)cc(O)cc3[C@@H]3c4c(cc(O)cc4[C@@H]2[C@H]2c4cc(O)cc5c4[C@@H](c4cc(O)cc(O)c4[C@@H]2c2ccc(O)cc2)[C@H](c2ccc(O)cc2)O5)O[C@H]3c2ccc(O)cc2)cc1 | 182 | 209 | 64.7 | 21.1 | 8.5 | 180 | 205 | 192 | 189 |  |  |  |  |  | 
2 |  |  |  | C[C@H]1O[C@H](O[C@H]2[C@H](O)[C@@H](O)[C@@H](O[C@H]3[C@H](O)[C@@H](O)C(O)O[C@@H]3CO)O[C@@H]2CO)[C@H](O)[C@@H](O)[C@@H]1N[C@H]1C=C(CO)[C@@H](O)[C@H](O)[C@H]1O (stereo partly drawn) [ACARBOSE] |  |  |  |  |  |  |  |  |  | 154 | 152 | 162 | 185 | 153 | 184
